The values that follow come from PubChem BioAssay AID720737 (The Scripps Research Institute Molecular Screening Center, 2013).

The test system of this experiment is HEK293 Gal4-LXR tk-luc reporter, luminescence, 24 h. In words: LXR agonists, Gal4 luciferase reporter, dose response, counter-screen for ssDAF-12 agonist project, cell-based, luminescence, HEK293, S. stercoralis campaign (AID 720737). On the technique in general: Reporter assays use an easily measured gene product as a stand-in for the process of interest.

The source made the active and inactive calls.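 How the source made its calls: active means compounds whose fitted concentration for half of maximal LXR reporter activation EC50 is 10 µM or lower; inactive means the rest.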 Some results are limits rather than exact numbers.

As usually defined, the EC50 is the concentration that produces a half-maximal response. With `CC(C)(C)C1CCC(=NNC(=S)Nc2cccnc2)CC1` (stereo unspecified), the EC50 is > 67.5 µM (inactive).
